Legend:
[1] = biological target: T1, SPHK2 (Homo sapiens, UniProt Q9NRA0); assay: Lipid kinase screening (ADP-Glo), SPHK2; format: biochemical
T1 sequence (Q9NRA0 1-654): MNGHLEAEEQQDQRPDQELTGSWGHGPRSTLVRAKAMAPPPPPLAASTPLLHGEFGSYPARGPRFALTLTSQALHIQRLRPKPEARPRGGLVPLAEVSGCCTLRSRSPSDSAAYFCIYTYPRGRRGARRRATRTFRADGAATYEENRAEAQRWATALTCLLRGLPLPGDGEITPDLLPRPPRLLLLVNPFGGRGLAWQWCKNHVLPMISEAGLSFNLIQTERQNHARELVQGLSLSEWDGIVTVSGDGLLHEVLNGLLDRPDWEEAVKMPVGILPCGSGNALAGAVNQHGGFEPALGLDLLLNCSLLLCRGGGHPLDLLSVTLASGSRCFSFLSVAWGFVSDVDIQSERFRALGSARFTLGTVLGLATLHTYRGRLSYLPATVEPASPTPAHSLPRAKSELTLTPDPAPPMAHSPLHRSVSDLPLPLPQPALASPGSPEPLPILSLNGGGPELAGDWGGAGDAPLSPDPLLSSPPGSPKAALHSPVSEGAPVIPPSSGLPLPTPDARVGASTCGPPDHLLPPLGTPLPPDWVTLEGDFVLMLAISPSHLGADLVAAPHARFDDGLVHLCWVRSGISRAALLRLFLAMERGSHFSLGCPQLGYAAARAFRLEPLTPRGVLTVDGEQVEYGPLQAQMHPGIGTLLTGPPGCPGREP
Method: (§1) The lipid kinase screening for ICL-CCIC-0019, CK14, CK145 (5), CK146 (4) and CK147 (8) (testing concentration for all compounds: 10 μM) was performed by MRC PPU International Centre for Kinase Profiling (Dundee, UK). The lipid kinase screening panel includes 15 human recombinant lipid kinases and the tests used Promega ADP Glo^TM High Throughput Assay kit (Promega, Southampton, UK). For each assay, reference compounds were used as quality control. Finally, mean percentage activity inhibited by compounds and standard deviation for all the repeats were calculated.

[2] = Caco-2 permeability and efflux study; format: in vitro ADME, human; settings: human; for efflux ratio: Caco-2, read-out: Efflux ratio (Papp B-A/Papp A-B); for Papp A→B: Caco-2, apical to basolateral, read-out: Papp A-B; for Papp B→A: Caco-2, basolateral to apical, read-out: Papp B-A
Method: (§2) The ADME study for ICL-CCIC-0019, CK14, CK145 (5), CK146 (4) and CK147 (8) was performed by Charles River Drug Discovery Services (Essex, UK).
(§3) The predicted in vitro pharmacokinetic characteristics of compounds were evaluated by four ADME assays, namely kinetic solubility assay, metabolic stability assay using human liver microsome S9, permeability and efflux study using the Caco-2 cell line, and matrix stability assay using fasted state simulated gastric fluid (FaSSGF). All tested CHKA inhibitors were highly soluble (>150 μM) in 0.1 M PBS (2% DMSO) (Table 1). […] The in vivo clearance was calculated to predict the actual clearance in humans by scaling the clearance values, which takes into account liver weight, microsomes per liver and liver blood flow. […] In Caco-2 cell permeability assay, drug permeability was investigated and presented as apparent permeability coefficients (Papp) in A to B (A-B, apical to basolateral direction) and B to A (B-A, basolateral to apical direction).

[3] = Kinetic solubility assay; format: physicochemical; settings: 0.1 M PBS (2% DMSO), aqueous buffer, kinetic from dmso stock; read-out: Kinetic Solubility: Solubility
Method: as §2, §3

[4] = system: PI3Ka E524K + p85; assay: Lipid kinase screening (ADP-Glo), PI3Ka E524K + p85; format: biochemical, human; settings: 10 μM
Method: as §1

[5] = biological target: CHK a (CHKA) (Homo sapiens, UniProt P35790); assay: Lipid kinase screening (ADP-Glo), CHKA; format: biochemical; settings: for % Inhibition CHK a: 10 μM
Method: as §1

[6] = biological target: CHK b (CHKB) (Homo sapiens, UniProt Q9Y259); assay: Lipid kinase screening (ADP-Glo), CHKB; format: biochemical
Method: as §1

[7] = system: HCT-116 cells; assay: Anti-proliferative SRB assay, HCT-116; format: cell-based; settings: Homo sapiens
Method: (§4) Half-maximal growth inhibitory concentrations (GI50) were determined using sulforhodamine B (SRB) assay as described elsewhere. In brief, cells were seeded in 96-wells at respective cell densities determined by their cell growth curves. After 24 h, the cells were treated in six replicates with medium or different concentrations of CHKA inhibitors in medium and incubated for another 72 h. On completion of incubation, the cells were fixed with 10% trichloroacetic acid (TCA) and stained with 0.4% SRB in 1% acetic acid. The stained protein was solubilized with 10 mM Tris base and optical density values were measured at 540 nm using a Multiskan® EX Micro plate photometer (Thermo Scientific, Loughborough, UK). Growth inhibition curves were plotted as percentage of the control groups and GI50 data were determined by least squares fitting method using GraphPad Prism 7.0. All the chemicals used in this experiment were obtained from Sigma-Aldrich (Gillingham, UK).

[8] = system: A549 cells; assay: Anti-proliferative SRB assay, A549; format: cell-based; settings: Homo sapiens, 72 h, Table S2, ± SD
Method: as §4

[9] = biological target: PI3K b (Homo sapiens, UniProt P42338); assay: Lipid kinase screening (ADP-Glo), PI3K b; format: biochemical
Method: as §1

[10] = system: PC3 cell line; assay: Anti-proliferative SRB assay, PC3; format: cell-based; settings: Homo sapiens, PC-3; PC3, PSMA −; Table S3, ± SD
Method: as §4

[11] = system: R1-D567 cell line; assay: Anti-proliferative SRB assay, R1-D567; format: cell-based; settings: Homo sapiens; R1-D567, PSMA −; Table S3, ± SD
Method: as §4

[12] = biological target: PI3Ka E545K + p85 (Homo sapiens, UniProt P42336, E545K); assay: Lipid kinase screening (ADP-Glo), PI3Ka E545K + p85; format: biochemical
Method: as §1

[13] = system: LNCap cell line; assay: Anti-proliferative SRB assay, LNCap; format: cell-based; settings: Homo sapiens, PSMA +, Table S3, ± SD
Method: as §4

[14] = biological target: PI4K2a (Homo sapiens, UniProt Q9BTU6); assay: Lipid kinase screening (ADP-Glo), PI4K2a; format: biochemical
Method: as §1

[15] = biological target: DGK g (Homo sapiens, UniProt P49619); assay: Lipid kinase screening (ADP-Glo), DGK g; format: biochemical
Method: as §1

[16] = Matrix stability assay in fasted state simulated gastric fluid (FaSSGF); format: in vitro ADME; settings: for Matrix Stability: Remaining %: FaSSGF; for half-life: fasted state simulated gastric fluid (FaSSGF), fasted state simulated gastric fluid, pH 1.6, read-out: FaSSGF stability Half-life (converted)
Method: as §2, §3

[17] = system: R1AD1 cell line; assay: Anti-proliferative SRB assay, R1AD1; format: cell-based; settings: Homo sapiens; R1AD1, PSMA −; Table S3, ± SD
Method: as §4

[18] = system: C4-2B cell line; assay: Anti-proliferative SRB assay, C4-2B; format: cell-based; settings: Homo sapiens, PSMA +, Table S3, ± SD
Method: as §4

[19] = biological target: DGK z (Homo sapiens, UniProt Q13574); assay: Lipid kinase screening (ADP-Glo), DGK z; format: biochemical
Method: as §1

[20] = biological target: SPHK1 (Homo sapiens, UniProt Q9NYA1); assay: Lipid kinase screening (ADP-Glo), SPHK1; format: biochemical
Method: as §1

[21] = HCT-116, PSMA −, Table S3, ± SD
[22] = HCT-116, SRB, 72 h, Table S2, ± SD

PI3K b, sequence (P42338 whole entry): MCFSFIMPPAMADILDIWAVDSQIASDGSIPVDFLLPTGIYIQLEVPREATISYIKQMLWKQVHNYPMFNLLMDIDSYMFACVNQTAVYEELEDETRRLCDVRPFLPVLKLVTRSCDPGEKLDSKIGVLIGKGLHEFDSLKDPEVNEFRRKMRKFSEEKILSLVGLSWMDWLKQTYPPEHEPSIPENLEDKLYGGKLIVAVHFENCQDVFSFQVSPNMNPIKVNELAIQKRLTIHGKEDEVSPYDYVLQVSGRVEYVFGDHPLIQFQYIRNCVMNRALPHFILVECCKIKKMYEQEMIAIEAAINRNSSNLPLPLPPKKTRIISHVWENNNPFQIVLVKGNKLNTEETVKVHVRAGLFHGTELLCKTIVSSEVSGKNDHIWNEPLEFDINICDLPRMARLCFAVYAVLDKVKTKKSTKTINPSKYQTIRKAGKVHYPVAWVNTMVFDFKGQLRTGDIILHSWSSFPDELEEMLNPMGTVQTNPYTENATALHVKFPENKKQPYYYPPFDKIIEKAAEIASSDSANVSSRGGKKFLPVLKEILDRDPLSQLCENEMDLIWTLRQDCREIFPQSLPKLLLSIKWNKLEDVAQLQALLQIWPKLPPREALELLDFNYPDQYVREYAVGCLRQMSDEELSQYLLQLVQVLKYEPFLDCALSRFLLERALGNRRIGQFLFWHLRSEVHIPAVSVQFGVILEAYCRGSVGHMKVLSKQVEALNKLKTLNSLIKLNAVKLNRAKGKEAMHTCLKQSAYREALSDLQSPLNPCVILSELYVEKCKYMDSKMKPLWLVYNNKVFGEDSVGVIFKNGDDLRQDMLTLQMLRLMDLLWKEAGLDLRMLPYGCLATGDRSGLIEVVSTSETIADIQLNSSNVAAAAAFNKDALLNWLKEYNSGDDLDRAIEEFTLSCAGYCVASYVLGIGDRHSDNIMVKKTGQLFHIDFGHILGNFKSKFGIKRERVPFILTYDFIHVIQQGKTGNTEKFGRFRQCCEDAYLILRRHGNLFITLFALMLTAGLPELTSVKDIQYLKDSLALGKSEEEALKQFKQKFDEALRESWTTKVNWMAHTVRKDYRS
PI3K b, sequence (P27986 whole entry partner): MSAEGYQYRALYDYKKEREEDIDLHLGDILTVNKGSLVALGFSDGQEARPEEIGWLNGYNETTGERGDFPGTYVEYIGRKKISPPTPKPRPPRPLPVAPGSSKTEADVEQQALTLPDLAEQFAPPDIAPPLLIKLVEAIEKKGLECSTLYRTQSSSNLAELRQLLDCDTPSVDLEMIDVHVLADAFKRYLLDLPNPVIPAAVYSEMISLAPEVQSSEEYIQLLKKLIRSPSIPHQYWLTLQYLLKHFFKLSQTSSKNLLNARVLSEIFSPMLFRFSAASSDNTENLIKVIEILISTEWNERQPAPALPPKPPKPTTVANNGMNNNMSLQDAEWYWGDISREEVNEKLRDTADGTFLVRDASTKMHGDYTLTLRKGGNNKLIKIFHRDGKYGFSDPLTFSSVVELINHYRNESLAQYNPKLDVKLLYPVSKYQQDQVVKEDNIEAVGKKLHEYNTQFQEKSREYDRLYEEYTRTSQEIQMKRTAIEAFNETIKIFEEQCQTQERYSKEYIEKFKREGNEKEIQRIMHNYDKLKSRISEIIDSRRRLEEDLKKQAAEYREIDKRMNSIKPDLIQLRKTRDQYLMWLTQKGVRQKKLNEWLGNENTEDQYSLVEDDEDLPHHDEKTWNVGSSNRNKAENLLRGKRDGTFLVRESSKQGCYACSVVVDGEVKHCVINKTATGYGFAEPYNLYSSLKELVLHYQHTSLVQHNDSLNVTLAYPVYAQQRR
PI3Ka E545K + p85, sequence (P42336 whole entry E545K): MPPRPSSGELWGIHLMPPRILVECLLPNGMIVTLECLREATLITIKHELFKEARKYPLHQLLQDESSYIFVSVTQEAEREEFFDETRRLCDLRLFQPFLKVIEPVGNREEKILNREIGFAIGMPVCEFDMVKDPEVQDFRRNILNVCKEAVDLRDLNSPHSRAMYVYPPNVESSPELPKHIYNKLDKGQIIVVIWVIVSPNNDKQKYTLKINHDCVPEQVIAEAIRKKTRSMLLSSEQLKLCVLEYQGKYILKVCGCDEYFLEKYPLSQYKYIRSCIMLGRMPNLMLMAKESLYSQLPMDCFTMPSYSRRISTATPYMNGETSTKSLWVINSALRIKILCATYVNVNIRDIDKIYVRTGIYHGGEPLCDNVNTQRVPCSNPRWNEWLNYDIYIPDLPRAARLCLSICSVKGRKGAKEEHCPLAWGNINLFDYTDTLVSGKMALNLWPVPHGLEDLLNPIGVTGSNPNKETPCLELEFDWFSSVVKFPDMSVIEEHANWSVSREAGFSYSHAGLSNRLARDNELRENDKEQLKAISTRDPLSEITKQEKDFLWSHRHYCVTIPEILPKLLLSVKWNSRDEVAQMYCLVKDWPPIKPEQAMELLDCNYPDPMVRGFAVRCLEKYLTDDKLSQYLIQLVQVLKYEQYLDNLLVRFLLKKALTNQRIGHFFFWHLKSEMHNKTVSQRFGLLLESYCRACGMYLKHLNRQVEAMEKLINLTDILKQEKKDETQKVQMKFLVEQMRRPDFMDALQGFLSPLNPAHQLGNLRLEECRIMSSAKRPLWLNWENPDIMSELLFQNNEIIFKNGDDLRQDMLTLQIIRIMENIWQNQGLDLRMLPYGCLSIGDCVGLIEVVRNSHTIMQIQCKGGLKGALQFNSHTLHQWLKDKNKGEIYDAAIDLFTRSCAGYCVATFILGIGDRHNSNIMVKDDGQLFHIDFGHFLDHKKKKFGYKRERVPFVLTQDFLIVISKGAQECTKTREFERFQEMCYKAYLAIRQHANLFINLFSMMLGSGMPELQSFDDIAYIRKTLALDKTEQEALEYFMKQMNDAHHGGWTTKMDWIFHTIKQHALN
PI3Ka E545K + p85, sequence (P27986 whole entry partner): as the sequence (P27986 whole entry partner) above
SPHK1, sequence (Q9NYA1 whole entry): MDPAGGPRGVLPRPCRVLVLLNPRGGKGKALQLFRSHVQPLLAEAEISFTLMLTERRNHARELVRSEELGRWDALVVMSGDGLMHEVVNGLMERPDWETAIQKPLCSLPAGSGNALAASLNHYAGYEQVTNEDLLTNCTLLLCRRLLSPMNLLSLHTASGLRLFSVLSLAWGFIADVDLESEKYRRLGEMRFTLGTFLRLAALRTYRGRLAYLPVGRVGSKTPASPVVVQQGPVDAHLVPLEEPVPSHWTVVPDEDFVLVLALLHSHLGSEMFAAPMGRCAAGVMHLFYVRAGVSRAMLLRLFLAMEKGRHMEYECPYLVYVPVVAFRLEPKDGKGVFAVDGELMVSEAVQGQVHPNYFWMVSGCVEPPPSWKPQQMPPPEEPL
DGK z, sequence (Q13574 whole entry): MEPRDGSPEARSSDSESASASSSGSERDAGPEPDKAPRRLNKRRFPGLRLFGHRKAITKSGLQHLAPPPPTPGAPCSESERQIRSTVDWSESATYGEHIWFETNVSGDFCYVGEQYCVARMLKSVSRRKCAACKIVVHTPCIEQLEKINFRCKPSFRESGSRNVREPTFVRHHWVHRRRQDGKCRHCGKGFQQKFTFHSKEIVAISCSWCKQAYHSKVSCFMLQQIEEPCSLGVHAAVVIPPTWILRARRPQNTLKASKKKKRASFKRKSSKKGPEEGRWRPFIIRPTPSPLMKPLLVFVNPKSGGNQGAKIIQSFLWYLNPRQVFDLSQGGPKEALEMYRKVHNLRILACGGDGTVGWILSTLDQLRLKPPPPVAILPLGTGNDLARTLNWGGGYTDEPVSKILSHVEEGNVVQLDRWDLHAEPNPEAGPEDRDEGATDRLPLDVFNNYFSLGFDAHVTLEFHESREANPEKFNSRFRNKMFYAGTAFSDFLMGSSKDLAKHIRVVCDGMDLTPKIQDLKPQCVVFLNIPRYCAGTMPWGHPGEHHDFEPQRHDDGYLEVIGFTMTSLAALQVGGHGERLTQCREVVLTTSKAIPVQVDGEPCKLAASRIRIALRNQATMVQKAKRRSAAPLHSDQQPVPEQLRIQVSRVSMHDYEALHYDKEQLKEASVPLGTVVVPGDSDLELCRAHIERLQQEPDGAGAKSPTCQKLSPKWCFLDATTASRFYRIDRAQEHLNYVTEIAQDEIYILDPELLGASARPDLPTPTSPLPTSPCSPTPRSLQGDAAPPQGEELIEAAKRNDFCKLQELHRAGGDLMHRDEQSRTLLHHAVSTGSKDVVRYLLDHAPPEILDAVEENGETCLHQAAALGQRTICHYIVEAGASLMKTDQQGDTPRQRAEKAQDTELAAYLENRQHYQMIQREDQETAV
CHK a (CHKA), sequence (P35790 whole entry): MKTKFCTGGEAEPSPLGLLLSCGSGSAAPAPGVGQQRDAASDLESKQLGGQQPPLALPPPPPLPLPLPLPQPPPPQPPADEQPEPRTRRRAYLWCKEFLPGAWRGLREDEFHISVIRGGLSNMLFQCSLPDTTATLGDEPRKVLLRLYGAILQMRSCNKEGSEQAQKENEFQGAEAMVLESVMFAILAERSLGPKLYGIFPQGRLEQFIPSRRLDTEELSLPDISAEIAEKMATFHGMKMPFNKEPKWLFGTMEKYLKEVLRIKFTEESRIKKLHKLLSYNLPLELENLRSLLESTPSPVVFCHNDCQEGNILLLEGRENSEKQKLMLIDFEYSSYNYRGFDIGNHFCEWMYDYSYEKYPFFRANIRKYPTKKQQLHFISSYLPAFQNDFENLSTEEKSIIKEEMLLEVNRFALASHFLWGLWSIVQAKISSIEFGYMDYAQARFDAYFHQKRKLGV
CHK b (CHKB), sequence (Q9Y259 whole entry): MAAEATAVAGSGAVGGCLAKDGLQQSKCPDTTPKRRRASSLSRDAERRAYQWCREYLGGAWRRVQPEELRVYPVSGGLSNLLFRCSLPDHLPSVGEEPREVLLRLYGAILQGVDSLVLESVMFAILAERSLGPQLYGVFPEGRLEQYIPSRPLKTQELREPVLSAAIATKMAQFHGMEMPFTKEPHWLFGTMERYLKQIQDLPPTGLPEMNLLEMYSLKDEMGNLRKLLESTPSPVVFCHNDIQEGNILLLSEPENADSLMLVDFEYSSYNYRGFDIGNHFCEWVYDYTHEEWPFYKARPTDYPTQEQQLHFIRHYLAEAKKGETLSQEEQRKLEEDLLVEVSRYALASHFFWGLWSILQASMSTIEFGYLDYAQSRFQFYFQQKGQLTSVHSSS

| inhibition at 10 µM [1] | efflux ratio [2] | Papp A→B [2] | Papp B→A [2] | solubility kinetic [3] | % Inhibition PI3Ka E524K + p85 [4] | inhibition at 10 µM [5] | % Inhibition CHK a [5] | inhibition at 10 µM [6] | GI50 [7, 21] | GI50 [7, 22] | GI50 [8] | inhibition at 10 µM [9] | GI50 [10] | inhibition at 10 µM [12] | GI50 [13] | inhibition at 10 µM [14] | inhibition at 10 µM [15] | Matrix Stability: Remaining % [16] | SMILES | GI50 [11] | other results |
| --- | --- | --- | --- | --- | --- | --- | --- | --- | --- | --- | --- | --- | --- | --- | --- | --- | --- | --- | --- | --- | --- |
| 13.2% | > 2.8 | < 0.1 ×10⁻⁶ cm/s | 0.3 ×10⁻⁶ cm/s | 178 µM | −0.1% | 63% | 62.9% | -18.1% | 103 ± 6.27 µM | 6.63 ± 0.2 µM | 2.47 ± 0.06 µM | -15.8% | 84.9 ± 7.03 µM | -1.8% | 39 ± 8.56 µM | -11.4% | 13.2% | 74% | CC(=O)NCCCCC(NC(=O)OC(C)(C)C)C(=O)N1CCN(c2cc[n+](CCCCCCCCCCCCCC[n+]3ccc(N(C)C)cc3)cc2)CC1 (stereo not shown) [CK145] | 40.4 ± 4.56 µM | half-life [16]: 9.2 h; FaSSGF stability (in words) ([16]; low pH (1.6)): Rapid decomposition; GI50 [17]: 53.4 ± 2.27 µM; GI50 [18]: 63 ± 12.1 µM; inhibition at 10 µM [19]: 11.6%; inhibition at 10 µM [20]: 0.6% |
| 22.4% | > 8.6 | < 0.1 ×10⁻⁶ cm/s | 0.9 ×10⁻⁶ cm/s | 161 µM | 1.6% | 53% | 53.4% | -28.6% | 0.42 ± 0.03 µM | 0.42 ± 0.03 µM | 0.05 ± 0.005 µM | -39.6% | 0.79 ± 0.03 µM | -6.1% | 0.3 ± 0.06 µM | -13.9% | 7.8% | 117% | CN(C)c1cc[n+](CCCCCCCCCCCC[n+]2ccc(N(C)C)cc2)cc1 [ICL-CCIC-0019] | 0.32 µM | half-life [16]: > 10 h; GI50 [17]: 0.4 ± 0.01 µM; GI50 [18]: 1.2 ± 0.31 µM; inhibition at 10 µM [19]: 7.5%; inhibition at 10 µM [20]: -3.7% |
| 10% | > 2.6 | < 0.1 ×10⁻⁶ cm/s | 0.3 ×10⁻⁶ cm/s | 158 µM | −6.5% | 69% | 69.1% | -49% | 4.76 ± 0.8 µM | 4.76 ± 0.8 µM | 2.07 ± 0.2 µM | -45.9% | 4.73 ± 0.81 µM | -1% | 1.92 ± 0.99 µM | -13.4% | 10.7% | 92% | CN(C)c1cc[n+](CCCCCCCCCCCCCC[n+]2ccc(N3CCNCC3)cc2)cc1 [CK146] | 0.87 ± 0.03 µM | half-life [16]: > 10 h; GI50 [17]: 5.67 ± 2.33 µM; GI50 [18]: 4.22 ± 0.43 µM; inhibition at 10 µM [19]: 8.6%; inhibition at 10 µM [20]: 2.1% |

— paper PMC8309005, “Novel Non-Congeneric Derivatives of the Choline Kinase Alpha Inhibitor ICL-CCIC-0019” (Pharmaceutics, 2021)
